We go through 36 compounds from patent US6407103B2, “Indeno [1,2-c] pyrazol-4-ones and their uses” (Bristol-Myers Squibb Pharma Company, priority 1998, dated 2002).

The structures appear in SMILES notation. A value given as a limit tells only on which side of the number the result lay.

Turning to `Cn1ccc(-c2[nH]nc3c2C(=O)c2c(NC(=O)NN4CCOCC4)cccc2-3)c1` [Example CC, 3-(1-methyl-3-pyrrolyl)-5-(morpholinocarbamoylamino)indeno[1,2-c]pyrazol-4-one], the melting point (usually the temperature of the solid-liquid transition) came out at 301 °C. In the case of `CCOC(=O)c1ccc(-c2[nH]nc3c2C(=O)c2c(NC(=O)NN4CCC[C@@H]4COC)cccc2-3)s1` [Example CCI, 3-(5-carboethoxy-2-thienyl)-5-(2 (R)-(methoxymethyl)pyrrolidinocarbamoylamino)indeno[1,2-c]pyrazol-4-one] it was 221 °C.

`CC(C)(C)OC(=O)NCCCC(=O)N1CCC(c2[nH]nc3c2C(=O)c2c(NC(=O)NN4CCOCC4)cccc2-3)CC1` [Example CCLXXVI, 3-(1-(3-(t-butoxycarbonylamino)propylcarbonyl)piperidin-4-yl)-5-(morpholinocarbamoylamino)indeno[1,2-c]pyrazol-4-one]: the melting point was determined as 73 °C. In the case of `CC(C)(C)OC(=O)N1CCC(C(=O)N2CCC(c3[nH]nc4c3C(=O)c3c(NC(=O)NN5CCOCC5)cccc3-4)CC2)CC1` [Example CCLXXXI, 3-(1-((1-(t-butoxycarbonyl)piperidin-4-yl)carbonyl)piperidin-4-yl)-5-(morpholinocarbamoylamino)indeno[1,2-c]pyrazol-4-one] it was 220 °C; in that of `CC(C)(C)OC(=O)N1CCCC(C(=O)N2CCC(c3[nH]nc4c3C(=O)c3c(NC(=O)NN5CCOCC5)cccc3-4)CC2)C1` (stereo not drawn) [Example CCLXXXIX, 3-(1(1-(t-butoxycarbonyl)piperidin-3-ylcarbonyl)piperidin-4-yl)-5-(morpholinocarbamoylamino)indeno[1,2-c]pyrazol-4-one], 196 °C; in that of `CC(C)(C)OC(=O)N[C@H]1CC[C@H](C(=O)N2CCC(c3[nH]nc4c3C(=O)c3c(NC(=O)NN5CCOCC5)cccc3-4)CC2)CC1` [Example CCLXXXVI, 3-(1-(trans-4-(t-butoxycarbonylamino)cyclohexylcarbonyl)piperidin-4-yl)-5-(morpholinocarbamoylamino)indeno[1,2-c]pyrazol-4-one], 178 °C. In the case of `CC(C)(C)OC(=O)N1CCN(c2ccc(-c3[nH]nc4c3C(=O)c3c(NC(=O)NN5CCOCC5)cccc3-4)cc2)CC1` [Example CCX, 3-(4-(4-t-butoxycarbonylpiperazino)phenyl)-5-(morpholinocarbamoylamino)indeno[1,2-c]pyrazol-4-one], the melting point stood at 242 °C. Next, `CC(C)(C)OC(=O)Nc1ccc(C(=O)N2CCC(c3[nH]nc4c3C(=O)c3c(NC(=O)NN5CCOCC5)cccc3-4)CC2)cc1` [Example CCXCIX, 3-(1-(4-(t-butoxycarbonylamino)phenylcarbonyl)piperidin-4-yl)-5-(morpholinocarbamoylamino)indeno[1,2-c]pyrazol-4-one]: 212 °C; `CC(C)(C)OC(=O)Nc1ccc(CC(=O)N2CCC(c3[nH]nc4c3C(=O)c3c(NC(=O)NN5CCOCC5)cccc3-4)CC2)cc1` [Example CCXCVI, 3-(1-(4-(t-butoxycarbonylamino)benzylcarbonyl)piperidin-4-yl)-5-(morpholinocarbamoylamino)indeno[1,2-c]pyrazol-4-one]: 177 °C; `NC(=O)Nc1cccc2c1C(=O)c1c-2n[nH]c1-c1csc(Cl)c1` [Example CI, 3-(5-chloro-3-thienyl)-5-(carbamoylamino)indeno[1,2-c]pyrazol-4-one]: above 300 °C. `Cc1cc(-c2[nH]nc3c2C(=O)c2c(NC(N)=O)cccc2-3)c(C)s1` [Example CII, 3-(2,5-dimethyl-3-thienyl)-5-(carbamoylamino)indeno[1,2-c]pyrazol-4-one] yielded a melting point above 280 °C. Compound `NC(=O)Nc1cccc2c1C(=O)c1c-2n[nH]c1-c1ccco1` [Example CIII, 3-(2-furanyl)-5-(carbamoylamino)indeno[1,2-c]pyrazol-4-one] had a melting point of 278 °C. Next, `Cn1ccc(-c2[nH]nc3c2C(=O)c2c(NC(N)=O)cccc2-3)c1` [Example CXII, 3-(1-methyl-3-pyrrolyl)-5-(carbamoylamino)indeno[1,2-c]pyrazol-4-one]: above 300 °C; `CC(C)c1[nH]nc2c1C(=O)c1c(NC(=O)CN3CCC(C(N)=O)CC3)cccc1-2` [Example CXV, 3-(i-propyl)-5-((4-carbamoylpiperidino)acetamido)indeno [1,2-c]pyrazol-4-one]: 224 °C; `CCc1[nH]nc2c1C(=O)c1c(NC(=O)CN3CCC(CN)CC3)cccc1-2` [Example CXVII, 3-(ethyl)-5-(4-(aminomethyl)piperidinoacetamido)indeno [1,2-c]pyrazol-4-one]: 174 °C. In the case of `CC(C)c1[nH]nc2c1C(=O)c1c(NC(=O)CN3CCC(CN)CC3)cccc1-2` [Example CXVIII, 3-(i-propyl)-5-(4-(aminomethyl)piperidinoacetamido)indeno [1,2-c]pyrazol-4-one] it was 218 °C; in that of `CC(C)c1[nH]nc2c1C(=O)c1c(NC(=O)NN3CCN(C)CC3)cccc1-2` [Example CXXI, 3-(i-propyl)-5-((4-methylpiperazino)carbamoylamino)indeno [1,2-c]pyrazol-4-one], 231 °C; in that of `CCOC(=O)c1ccc(-c2[nH]nc3c2C(=O)c2c(NC(=O)NN4CCN(C)CC4)cccc2-3)s1` [Example CXXII, 3-(5-carboethoxy-2-thienyl)-5-((4-methylpiperazino)carbamoylamino)indeno [1,2-c]pyrazol-4-one], 249 °C. `CN1CCN(NC(=O)Nc2cccc3c2C(=O)c2c-3n[nH]c2-c2ccc(C(=O)O)s2)CC1` [Example CXXIII, 3-(5-carboxyl-2-thienyl)-5-((4-methylpiperazino)carbamoylamino)indeno [1,2-c]pyrazol-4-one] showed a melting point of 270 °C. In the case of `Cc1cc(-c2[nH]nc3c2C(=O)c2c(NC(=O)NN4CCN(C)CC4)cccc2-3)c(C)s1` [Example CXXIV, 3-(2,5-dimethyl-3-thienyl)-5-((4-methylpiperazino)carbamoylamino)indeno [1,2-c]pyrazol-4-one] it was 250 °C; in that of `COc1ccc(-c2[nH]nc3c2C(=O)c2c(NC(C)=O)cccc2-3)cc1` [Example I, 3-(4-methoxyphenyl)-5-(acetamido)indeno[1,2-c]pyrazol-4-one], 268 °C. In the case of `COc1ccc(-c2[nH]nc3c2C(=O)c2c(NC(=O)C4CC4)cccc2-3)cc1` [Example III, 3-(4-methoxyphenyl)-5-(cyclopropanecarboxamido)indeno[1,2-c]pyrazol-4-one] it was 289 °C. In the case of `CCCC(=O)Nc1cccc2c1C(=O)c1c-2n[nH]c1-c1ccc(OC)cc1` [Example IX, 3-(4-methoxyphenyl)-5-(butanamido)indeno[1,2-c]pyrazol-4-one] it was 282 °C; in that of `O=CNc1cccc2c1C(=O)c1c-2n[nH]c1-c1ccncc1` [Example L, 3-(4-pyridyl)-5-(formamido)indeno [1,2-c]pyrazol-4-one], above 300 °C. Regarding `CN(C)c1ccc(-c2[nH]nc3c2C(=O)c2c(NC(=O)CN4CCOCC4)cccc2-3)cc1` [Example LV, 3-(4-(N,N-dimethylamino)phenyl)-5-(morpholinoacetamido)indeno[1,2-c]pyrazol-4-one], the melting point was above 300 °C. Regarding `CC(=O)Nc1cccc2c1C(=O)c1c-2n[nH]c1-c1ccc(N2CCOCC2)cc1` [Example LVIII, 3-(4-morpholinophenyl)-5-(acetamido)indeno[1,2-c]pyrazol-4-one], the melting point is above 300 °C.

In the case of `CCc1ccc(-c2[nH]nc3c2C(=O)c2c(NC(C)=O)cccc2-3)cc1` [Example LXI, 3-(4-ethylphenyl)-5-(acetamido)indeno[1,2-c]pyrazol-4-one], the melting point came out at 294 °C. As to `COc1ccc(-c2[nH]nc3c2C(=O)c2c(NC(N)=O)cccc2-3)cc1` [Example LXIII, 3-(4-methoxyphenyl)-5-(carbamoylamino)indeno[1,2-c]pyrazol-4-one], the melting point is above 300 °C. In the case of `CNC(=O)Nc1cccc2c1C(=O)c1c-2n[nH]c1-c1ccc(OC)cc1` [Example LXV, 3-(4-methoxyphenyl)-5-((methylcarbamoyl)amino)indeno[1,2-c]pyrazol-4-one] it was above 300 °C. Next, `COc1ccc(-c2[nH]nc3c2C(=O)c2c(NC(=O)NN4CCOCC4)cccc2-3)cc1` [Example LXVI, 3-(4-methoxyphenyl)-5-((morpholinocarbamoyl)amino)indeno[1,2-c]pyrazol-4-one]: above 300 °C; `COc1ccc(-c2[nH]nc3c2C(=O)c2c(NC(=O)NN4CCN(C)CC4)cccc2-3)cc1` [Example LXVIII, 3-(4-methoxyphenyl)-5-((4-methylpiperazinocarbamoyl)amino)indeno[1,2-c]pyrazol-4-one]: above 300 °C; `COc1ccc(-c2[nH]nc3c2C(=O)c2c(NC(=O)CN4CCN(c5ccccn5)CC4)cccc2-3)cc1` [Example LXX, 3-(4-methoxyphenyl)-5-(4-(2-pyridyl)piperazinoacetamido)indeno[1,2-c]pyrazol-4-one]: above 300 °C. In turn, `COc1ccc(-c2[nH]nc3c2C(=O)c2c(NC(=O)CN4CCN(CCN)CC4)cccc2-3)cc1` [Example LXXI, 3-(4-methoxyphenyl)-5-(4-(aminoethyl)piperazinoacetamido)indeno[1,2-c]pyrazol-4-one] registered a melting point above 300 °C. Take `COc1ccc(-c2[nH]nc3c2C(=O)c2c(NC(=O)CN4CCC(C(N)=O)CC4)cccc2-3)cc1` [Example LXXII, 3-(4-methoxyphenyl)-5-(4-carbamoylpiperidinoacetamido)indeno[1,2-c]pyrazol-4-one]: the melting point was above 300 °C. Consider `COc1ccc(-c2[nH]nc3c2C(=O)c2c(NC(=O)CN4CCC(O)CC4)cccc2-3)cc1` [Example LXXIII, 3-(4-methoxyphenyl)-5-(4-hydroxypiperidinoacetamido)indeno[1,2-c]pyrazol-4-one], for which the melting point was above 300 °C. In the case of `CN1CCN(CC(=O)Nc2cccc3c2C(=O)c2c-3n[nH]c2-c2ccc(N(C)C)cc2)CC1` [Example LXXVIII, 3-(4-(dimethylamino)phenyl)-5-((4-methylpiperazino)acetamido)indeno[1,2-c]pyrazol-4-one] it was above 300 °C.
